The record followed here is US11771738B2 (Zoetis Services LLC, priority 2018, dated 2023).

Format in all cases: cell-based
One assay relates to D. immitis L4 larvae. Put plainly: Dirofilaria immitis, L4 Stage (DiL4) In Vitro Assay. The settings on record: for minimal effective concentration: Dirofilaria immitis, 72 h, read-out: DiL4 MED, Minimum Effective Dose, D. immitis L4 larvae motility, in vitro; for DiMf/DiL4: larval stage selectivity, ratio of DiMf MED to DiL4 MED.
The test system of assay [1] is third stage larvae of Haemonchus contortus. The assay can be described thus: Haemonchus contortus, Larvae Stage 3 (HcL3) In Vitro Assay. The settings on record: for minimal effective concentration: Haemonchus contortus, 96 h; for HcL3 MED (symbol after Ex#): approximately 96 hours incubation.
Assay [2] relates to microfilariae of Dirofilaria immitis. Put plainly: Dirofilaria immitis, Microfilaria (DiMf) In Vitro Assay. As to conditions: Dirofilaria immitis, 72 h, read-out: DiMf MED, Minimum Effective Dose, D. immitis microfilariae motility, in vitro.
Where [3] appears, read: read-out: HcL3 MED, Minimum Effective Dose, H. contortus third stage larvae, approximately 96 hours.
[4] abbreviates: read-out: HcL3 MED (symbol after Ex#), approximately 96 hours incubation, multiple-resistant field isolate.
Setting [5] is: read-out: HcL3 MED, approximately 96 hours incubation, multiple-resistant field isolate.
Where [6] appears, read: multiple-resistant field isolate.

Read-outs that look alike come from different tables or passages of the source. Some results are limits rather than exact numbers.

In the case of `COc1cccc(Cc2ccc(C[C@H]3OC(=O)[C@H](CC(C)C)N(C)C(=O)[C@@H](C)OC(=O)[C@H](CC(C)C)N(C)C(=O)[C@@H](Cc4ccc(Cc5cccc(OC)c5)cc4)OC(=O)[C@H](CC(C)C)N(C)C(=O)[C@@H](C)OC(=O)[C@H](CC(C)C)N(C)C3=O)cc2)c1` [Example 1-5, (3S,6R,9S,12R,15S,18R,21S,24R)-3,9,15,21-tetraisobutyl-6,18-bis(4-(3-methoxybenzyl)benzyl)-4,10,12,16,22,24-hexamethyl-1,7,13,19-tetraoxa-4,10,16,22-tetraazacyclotetracosan-2,5,8,11,14,17,20,23-octaone], the minimal effective concentration in the assay with D. immitis L4 larvae is 0.001 µM; in assay [1] (setting [3]) it was greater than 100 µM; in assay [2], 0.5 µM. The DiMf/DiL4 in the assay with D. immitis L4 larvae is 500.

With `COc1ccccc1Cc1ccc(C[C@H]2OC(=O)[C@H](CC(C)C)N(C)C(=O)[C@@H](C)OC(=O)[C@H](CC(C)C)N(C)C(=O)[C@@H](Cc3ccc(Cc4ccccc4OC)cc3)OC(=O)[C@H](CC(C)C)N(C)C(=O)[C@@H](C)OC(=O)[C@H](CC(C)C)N(C)C2=O)cc1` [Example 1-11, (3S,6R,9S,12R,15S,18R,21S,24R)-3,9,15,21-tetraisobutyl-6,18-bis(4-(2-methoxybenzyl)benzyl)-4,10,12,16,22,24-hexamethyl-1,7,13,19-tetraoxa-4,10,16,22-tetraazacyclotetracosan-2,5,8,11,14,17,20,23-octaone], the minimal effective concentration with D. immitis L4 larvae was 0.001 µM; in assay [1] (setting [3]), greater than 10 µM; in assay [2] it was 0.3 µM. In the assay with D. immitis L4 larvae, the DiMf/DiL4 was determined as 300.

Take `CC(C)C[C@H]1C(=O)O[C@H](Cc2ccc(C(c3ccc(F)c(F)c3)n3cccn3)cc2)C(=O)N(C)[C@@H](CC(C)C)C(=O)O[C@H](C)C(=O)N(C)[C@@H](CC(C)C)C(=O)O[C@H](Cc2ccc(C(c3ccc(F)c(F)c3)n3cccn3)cc2)C(=O)N(C)[C@@H](CC(C)C)C(=O)O[C@H](C)C(=O)N1C` (stereo partly drawn) [Example 1-18, (3S,6R,9S,12R,15S,18R,21S,24R)-6,18-bis(4-((3,4-difluorophenyl)(1H-pyrazol-1-yl)methyl)benzyl)-3,9,15,21-tetraisobutyl-4,10,12,16,22,24-hexamethyl-1,7,13,19-tetraoxa-4,10,16,22-tetraazacyclotetracosan-2,5,8,11,14,17,20,23-octaone]: the minimal effective concentration in the assay on D. immitis L4 larvae is less than 0.0001 µM; in assay [1] (setting [3]) it was greater than 100 µM; in assay [2] it was 0.003 µM. The DiMf/DiL4 in the assay with D. immitis L4 larvae is reported as greater than 30.

Regarding `CC(C)C[C@H]1C(=O)O[C@H](Cc2ccc(Cc3ccccc3)cc2)C(=O)N(C)[C@@H](CC(C)C)C(=O)O[C@H](C)C(=O)N(C)[C@@H](CC(C)C)C(=O)O[C@H](Cc2ccccc2)C(=O)N(C)[C@@H](CC(C)C)C(=O)O[C@H](C)C(=O)N1C` [Example 2-1, (3S,6R,9S,12R,15S,18R,21S,24R)-6-benzyl-18-(4-benzylbenzyl)-3,9,15,21-tetraisobutyl-4,10,12,16,22,24-hexamethyl-1,7,13,19-tetraoxa-4,10,16,22-tetraazacyclotetracosan-2,5,8,11,14,17,20,23-octaone], the minimal effective concentration in the assay with D. immitis L4 larvae was 0.001 µM; in assay [1] (setting [4]), less than 1 µM; in assay [1] (setting [3]), 0.65 µM; in assay [1] (setting [5]), no more than 1 µM; in assay [2] it was 0.02 µM. Moreover, the DiMf/DiL4 in the assay on D. immitis L4 larvae came to 20.

On to `CC(C)C[C@H]1C(=O)O[C@H](Cc2ccc(Cc3ccc(F)cc3)cc2)C(=O)N(C)[C@@H](CC(C)C)C(=O)O[C@H](C)C(=O)N(C)[C@@H](CC(C)C)C(=O)O[C@H](Cc2ccccc2)C(=O)N(C)[C@@H](CC(C)C)C(=O)O[C@H](C)C(=O)N1C` [Example 2-4, (3S,6R,9S,12R,15S,18R,21S,24R)-6-benzyl-18-(4-(4-fluorobenzyl)benzyl)-3,9,15,21-tetraisobutyl-4,10,12,16,22,24-hexamethyl-1,7,13,19-tetraoxa-4,10,16,22-tetraazacyclotetracosan-2,5,8,11,14,17,20,23-octaone], for which the minimal effective concentration with D. immitis L4 larvae is 0.0007 µM; in assay [1] (setting [4]) it was 1 to 3.3 µM; in assay [1] (setting [3]), 3.3 µM; in assay [2], 0.05 µM. Further, the DiMf/DiL4 with D. immitis L4 larvae was determined as 71.4.

As for `CCN(CC)C(c1ccc(C[C@H]2OC(=O)[C@H](CC(C)C)N(C)C(=O)[C@@H](C)OC(=O)[C@H](CC(C)C)N(C)C(=O)[C@@H](Cc3ccccc3)OC(=O)[C@H](CC(C)C)N(C)C(=O)[C@@H](C)OC(=O)[C@H](CC(C)C)N(C)C2=O)cc1)c1ccc(F)c(F)c1` (stereo partly drawn) [Example 2-36, (3S,6R,9S,12R,15S,18R,21S,24R)-6-benzyl-18-(4-((diethylamino)(3,4-difluorophenyl)methyl)benzyl)-3,9,15,21-tetraisobutyl-4,10,12,16,22,24-hexamethyl-1,7,13,19-tetraoxa-4,10,16,22-tetraazacyclotetracosan-2,5,8,11,14,17,20,23-octaone], the minimal effective concentration with D. immitis L4 larvae stood at 0.0002 µM; in assay [1] (setting [3]), 1 µM; in assay [2] it was 0.03 µM. The DiMf/DiL4 in the assay with D. immitis L4 larvae was 150.

`Cc1cnsc1Cc1ccc(C[C@H]2OC(=O)[C@H](CC(C)C)N(C)C(=O)[C@@H](C)OC(=O)[C@H](CC(C)C)N(C)C(=O)[C@@H](Cc3ccc(Cc4sncc4C)cc3)OC(=O)[C@H](CC(C)C)N(C)C(=O)[C@@H](C)OC(=O)[C@H](CC(C)C)N(C)C2=O)cc1` [Example 3-288, (3S,6R,9S,12R,15S,18R,21S,24R)-3,9,15,21-tetraisobutyl-4,6,10,16,18,22-hexamethyl-12,24-bis(4-((4-methylisothiazol-5-yl)methyl)benzyl)-1,7,13,19-tetraoxa-4,10,16,22-tetraazacyclotetracosan-2,5,8,11,14,17,20,23-octaone]: in the assay on D. immitis L4 larvae (Minimum Effective Dose, D. immitis L4 larvae motility, in vitro, listed as (3-288)), the “DiL4 MED” value came out at 0.1 nM. Further, the DiMf/DiL4 in the assay with D. immitis L4 larvae (listed as (3-288)) is reported as 30. The minimal effective concentration is less than 1 µM in assay [1] (read-out: HcL3 MED, Haemonchus contortus third stage larvae in vitro, class mark appended to the Ex # in Table 3) and no more than 1 µM in assay [1] (setting [5]). For the same compound, in assay [1] (Minimum Effective Dose, H. contortus third stage larvae, approximately 96 hours, listed as (3-288)), the “HcL3 MED” value amounted to 0.2 µM.

Consider `COc1ncc(Cl)cc1Cc1ccc(C[C@H]2OC(=O)[C@H](CC(C)C)N(C)C(=O)[C@@H](C)OC(=O)[C@H](CC(C)C)N(C)C(=O)[C@@H](Cc3ccc(Cc4cc(Cl)cnc4OC)cc3)OC(=O)[C@H](CC(C)C)N(C)C(=O)[C@@H](C)OC(=O)[C@H](CC(C)C)N(C)C2=O)cc1` [Example 3-332, (3S,6R,9S,12R,15S,18R,21S,24R)-6,18-bis(4-((5-chloro-2-methoxypyridin-3-yl)methyl)benzyl)-3,9,15,21-tetraisobutyl-4,10,12,16,22,24-hexamethyl-1,7,13,19-tetraoxa-4,10,16,22-tetraazacyclotetracosan-2,5,8,11,14,17,20,23-octaone], for which the figures for the minimal effective concentration (in the assay with D. immitis L4 larvae; in assay [2]) were 0.0005 µM and 0.3 µM, respectively. In addition, in the assay with D. immitis L4 larvae, the DiMf/DiL4 worked out at 548.

Turning to `Cc1cnc(Cc2ccc(C[C@H]3OC(=O)[C@H](CC(C)C)N(C)C(=O)[C@@H](C)OC(=O)[C@H](CC(C)C)N(C)C(=O)[C@@H](Cc4ccccc4)OC(=O)[C@H](CC(C)C)N(C)C(=O)[C@@H](C)OC(=O)[C@H](CC(C)C)N(C)C3=O)cc2)s1` [Example 4-94], the “HcL3 MED (symbol after Ex#)” value in assay [1] (setting [6]) was 4-94^ (Examples with a carrot (^) have HcL3 MED values>1 and ≤3.3 μM).

With `Cc1ccc(Cc2ccc(C[C@H]3OC(=O)[C@H](CC(C)C)N(C)C(=O)[C@@H](C)OC(=O)[C@H](CC(C)C)N(C)C(=O)[C@@H](Cc4ccccc4)OC(=O)[C@H](CC(C)C)N(C)C(=O)[C@@H](C)OC(=O)[C@H](CC(C)C)N(C)C3=O)cc2)cn1` [Example 4-101], in assay [1] (setting [6]), the “HcL3 MED (symbol after Ex#)” value was 4-101^ (Examples with a carrot (^) have HcL3 MED values>1 and ≤3.3 μM).

For the compound `CC(C)C[C@H]1C(=O)O[C@H](Cc2ccc(Cc3ncc(Cl)s3)cc2)C(=O)N(C)[C@@H](CC(C)C)C(=O)O[C@H](C)C(=O)N(C)[C@@H](CC(C)C)C(=O)O[C@H](Cc2ccccc2)C(=O)N(C)[C@@H](CC(C)C)C(=O)O[C@H](C)C(=O)N1C` [Example 4-111], in assay [1] (setting [6]), the “HcL3 MED (symbol after Ex#)” value is 4-111^ (Examples with a carrot (^) have HcL3 MED values>1 and ≤3.3 μM).

`Cc1nc(Cc2ccc(C[C@H]3OC(=O)[C@H](CC(C)C)N(C)C(=O)[C@@H](C)OC(=O)[C@H](CC(C)C)N(C)C(=O)[C@@H](Cc4ccccc4)OC(=O)[C@H](CC(C)C)N(C)C(=O)[C@@H](C)OC(=O)[C@H](CC(C)C)N(C)C3=O)cc2)sc1C` [Example 4-115]: in assay [1] (setting [6]), the “HcL3 MED (symbol after Ex#)” value was 4-115^ (Examples with a carrot (^) have HcL3 MED values>1 and ≤3.3 μM).

On to `Cc1nnsc1Cc1ccc(C[C@H]2OC(=O)[C@H](CC(C)C)N(C)C(=O)[C@@H](C)OC(=O)[C@H](CC(C)C)N(C)C(=O)[C@@H](Cc3ccccc3)OC(=O)[C@H](CC(C)C)N(C)C(=O)[C@@H](C)OC(=O)[C@H](CC(C)C)N(C)C2=O)cc1` [Example 4-116], for which the “HcL3 MED (symbol after Ex#)” value in assay [1] (setting [6]) is 4-116^ (Examples with a carrot (^) have HcL3 MED values>1 and ≤3.3 μM).

Consider `CC(C)C[C@H]1C(=O)O[C@H](Cc2ccc(Cc3cnco3)cc2)C(=O)N(C)[C@@H](CC(C)C)C(=O)O[C@H](C)C(=O)N(C)[C@@H](CC(C)C)C(=O)O[C@H](Cc2ccccc2)C(=O)N(C)[C@@H](CC(C)C)C(=O)O[C@H](C)C(=O)N1C` [Example 4-135], for which the “HcL3 MED (symbol after Ex#)” value in assay [1] (setting [6]) is 4-135^ (Examples with a carrot (^) have HcL3 MED values>1 and ≤3.3 μM).
